One assay concerns the target T1, PPARγ2 and 14-3-3γ (Homo sapiens, UniProt P37231).
T1 construct: expressed in transfected cells; host or cells: HEK-293T
T1 sequence (P37231 1-505): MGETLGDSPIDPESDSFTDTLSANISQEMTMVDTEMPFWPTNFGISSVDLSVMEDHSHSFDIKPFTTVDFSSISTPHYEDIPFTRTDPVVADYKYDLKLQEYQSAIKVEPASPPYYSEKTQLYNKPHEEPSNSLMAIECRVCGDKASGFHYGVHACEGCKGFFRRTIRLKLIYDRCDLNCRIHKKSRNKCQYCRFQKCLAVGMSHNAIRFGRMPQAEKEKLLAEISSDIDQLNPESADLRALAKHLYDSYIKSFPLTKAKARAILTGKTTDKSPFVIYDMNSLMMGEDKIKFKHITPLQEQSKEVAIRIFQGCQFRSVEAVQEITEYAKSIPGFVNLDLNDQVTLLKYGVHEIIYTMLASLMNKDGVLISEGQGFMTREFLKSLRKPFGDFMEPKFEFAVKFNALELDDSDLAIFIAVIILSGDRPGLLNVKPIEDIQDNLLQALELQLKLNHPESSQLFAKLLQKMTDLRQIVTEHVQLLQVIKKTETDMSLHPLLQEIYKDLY
Description: GST-pull down assay, PPARγ2 / 14-3-3γ binding with oleic acid treatment (HEK-293T). The settings on record: 200 μM oleic acid 72 hours; FIG. 8B. On the procedure:
(§1) HEK-293T cells were seeded in a 100 mm plate at a density of 2×10^6 cells per each well, and then transfected with mGST-PPARγ2DNA (4 μg) and HA-14-3-3β DNA (4 μg) or HA-14-3-3γ DNA (4 μg) using an E-fection plus reagent (Lugen). A ratio of DNA to the E-fection plus reagent was 1:2, and this method was performed according to a manufacturer's manual. After transfection, the cells were treated with 200 μM of oleic acid (OA) for 72 hours, washed with ice-cold PBS, and lysed with 500 μl/well of a lysis buffer (150 mM NaCl, 1 mM EDTA, 1% Nonidet P-40, 5% glycerol, 25 mM tris-HCl, pH 7.5, protease inhibitor added), the lysed cells were centrifuged at 10,000×g and 4° C. for 10 minutes to extract proteins, 1,000 μg of the proteins was reacted with 20 μl of glutathione Sepharose 4B beads (GE Healthcare, Buckinghamshire, UK) for 6 hours, washing of the beads with 1 ml of ice-cold PBS was repeated 5 times, the resulting beads were boiled at 100° C. for 10 minutes, and the proteins were separated on a 10% SDS-PAGE gel and identified using each of the antibodies (GST, HA: Santa Cruz) by western blotting, and all antibodies were used in a ratio of 1:3000.

The test system of assay [1] is primary mouse hepatocytes. Description: Oil Red-O lipid accumulation, primary mouse hepatocytes. In kind it is cell-based. The settings on record: concentration-dependent treatment of oleic acid, FIG. 9A. The procedure: (§2) HepG2 cells and primary mouse hepatocytes were separately seeded in a 6-well plate at a density of 4×10^5 cells per each well, and then transfected with GFP-14-3-3β DNA (1 μg) or GFP-14-3-3γ DNA (1 μg) and si-14-3-3β (10 μM, Santa Cruz) or si-14-3-3γ (10 μM, Santa Cruz) using an E-fection plus reagent (Lugen). A ratio of DNA to the E-fection plus reagent was 1:2, and this method was performed according to a manufacturer's manual. […] The stained cells were bleached with 1 ml of isopropanol and analyzed at a wavelength of 550 nm using a DU530 spectrophotometer (Beckman Instruments, Palo Alto, Calif.).

The test system of assay [2] is HepG2 cells. Description: Oil Red-O lipid accumulation, HepG2 cells. The conditions noted are these: concentration-dependent treatment of oleic acid, FIG. 9A. In kind it is cell-based. On the procedure:
as §2

Assay [3] deals with primary mouse hepatocytes. Description: Triglyceride colorimetric assay, primary mouse hepatocytes. In kind it is cell-based. The settings on record: primary mouse hepatocytes treated with oleic acid (200 μM, 72 hours); FIG. 10A. The procedure:
A triglyceride (neutral fat) is a type of fatty acid and is used as an index of a fat content. A biochemical lipid test was carried out by measuring an amount of triglycerides. HepG2 cells and primary mouse hepatocytes were separately seeded in a 6-well plate at a density of 4×10^5 cells per each well, and then transfected with GFP-14-3-3β DNA (1 μg) or GFP-14-3-3γ DNA (1 μg) and si-14-3-3β (10 μM, Santa Cruz) or si-14-3-3γ (10 μM, Santa Cruz) using an E-fection plus reagent (Lugen). A ratio of DNA to the E-fection plus reagent was 1:2, and this method was performed according to a manufacturer's manual. After transfection, the cells were treated with 200 μM of oleic acid (OA) for 72 hours, and the amount of triglycerides was measured using a triglyceride colorimetric assay kit (Cayman Chemical). The corresponding cells were washed with ice-cold PBS and then scraped using a standard diluent assay reagent, the scrapping process was repeated using a sonicator 20 times to lyse the cells, and the lysed cells were reacted with an enzyme buffer solution for 15 minutes, followed by measurement using an ELISA reader (Bio-Rad Laboratories, Inc) at a wavelength of 550 nm.

The subject of assay [4] is primary mouse hepatocytes. Description: mRNA expression (real-time PCR) after oleic acid treatment, primary mouse hepatocytes. The conditions noted are these: oleic acid 72 hours. Type of assay: cell-based. From the text:
(§3) It is known that, in the liver of obese mice, the expression and activity of PPARγ2 are increased, and the expression of a target gene thereof is increased. To form such an obese environment in an in vitro experiment, mRNA expression amounts of PPARγ2, and 14-3-3β and 14-3-3γ were checked through treatment with oleic acid (OA), which is a type of fatty acid.
(§4) HepG2 cells and primary mouse hepatocytes were separately seeded in a 6-well plate at a density of 4x10^5 cells per each well, and then treated with 200 μM of oleic acid (OA) for 72 hours. For mRNA extraction, the corresponding cells were lysed with 1 ml/well of TRIzol (Invitrogen), 200 μl of chloroform was added thereto and mixed well, the resultant cells were maintained at room temperature for 5 minutes and then centrifuged at 12,000×g and 4° C. for 15 minutes, the obtained supernatant was mixed with 500 μl of isopropanol and then put on ice for 10 minutes, the resulting supernatant was centrifuged at 12,000×g and 4° C. for 15 minutes to remove a supernatant, and then pellets were dissolved with tertiary distilled water treated with diethyl pyrocarbonate (DEPC). 2 μg of mRNA was synthesized into cDNA using a Superscript First Strand cDNA Synthesis Kit (Bioneer, Daejeon, South Korea) and the synthesized cDNA as a template was amplified through polymerase chain reaction (PCR) using primers specific to PPARγ2, 14-3-3β, 14-3-3γ, SREBP-1c, SCD-1, ACC, FABP, FAT/CD36, and (β-actin of humans, and was amplified through real-time PCR using primers specific to PPARγ2, 14-3-3β, 14-3-3γ, SREBP-1c, FAT/CD36, and GAPDH of mice. β-actin and GAPDH were used as controls to see whether mRNAs of the respective cells were compared in the same amount.
A general note: Quantitative PCR measures a nucleic acid by following its amplification.

The next assay concerns the target T2, PPARγ2 and 14-3-3β (Homo sapiens, UniProt P37231).
T2 construct: expressed in transfected cells; host or cells: HEK-293T
T2 sequence (P37231 1-505): T1 sequence (P37231 1-505)
T2 sequence (P31946 1-246 partner): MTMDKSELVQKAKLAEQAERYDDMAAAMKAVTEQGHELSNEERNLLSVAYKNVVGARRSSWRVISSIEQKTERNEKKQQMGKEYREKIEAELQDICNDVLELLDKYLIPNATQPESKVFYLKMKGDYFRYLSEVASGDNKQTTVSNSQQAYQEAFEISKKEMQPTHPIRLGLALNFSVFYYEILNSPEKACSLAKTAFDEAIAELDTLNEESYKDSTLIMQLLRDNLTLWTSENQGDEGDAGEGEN
Description: GST-pull down assay, PPARγ2 / 14-3-3β binding with oleic acid treatment (HEK-293T). The conditions noted are these: 200 μM oleic acid 72 hours; FIG. 8A. The procedure:
as §1

The test system of assay [5] is HepG2 cells. Description: mRNA expression (PCR) after oleic acid treatment, HepG2 cells. In kind it is cell-based, human. The conditions noted are these: oleic acid 72 hours.
Description: as §3, §4

Regarding `CCCCCCCC/C=C\CCCCCCCC(=O)O` [oleic acid], the “binding between PPARγ2 and 14-3-3γ” value at PPARγ2 and 14-3-3γ was “reduced”. Besides, the “lipid accumulation (Oil Red-O)” value (in assay [1]; in the assay with HepG2 cells [2]) was “lipid accumulation was increased” in each case. In assay [3], the triglyceride accumulation entry was “triglyceride accumulation was increased”. The “mRNA expression amount of 14-3-3β” value (in assay [4] (FIG. 6B); in the assay on HepG2 cells [5] (FIG. 6A)) was “no changes” throughout. Further, the “mRNA expression amount of 14-3-3γ” value (in assay [4] (FIG. 6B); with HepG2 cells [5] (FIG. 6A)) was “no changes” throughout. Moreover, the “mRNA expression of PPARγ2” value (in assay [4] (FIG. 6B); in the assay with HepG2 cells [5] (FIG. 6A)) was “increased in an oleic acid concentration-dependent manner” in each case. The “mRNA expression of lipid metabolism-associated genes (PPARγ2 target genes)” value (in assay [4] (FIG. 6D); with HepG2 cells [5] (FIG. 6C)) was “also increased in an oleic acid concentration-dependent manner” each time. On PPARγ2 and 14-3-3β, the “binding between PPARγ2 and 14-3-3β” value is given as “increased”.

Source of the values: patent US20180207294A1, “NON-ALCOHOLIC FATTY LIVER REGULATING FACTOR 14-3-3 PROTEIN” (Korea University Research and Business Foundation, priority 2015, published 2018).
